In EP1214938A2, “Modulation of cellular response to external stimuli” (priority 1991, dated 1992):

What was measured:
T cell proliferation = conditions: Singer et al.; cited from earlier work
[1] = system: Human glomerular mesangial cells; assay: Invention assay: HPLC of lipids (PA, DAG) extracted from IL-1-stimulated mesangial cells; type: cell-based
Description: The compounds of Formula I are shown to modulate the effects of primary stimuli which elevate levels of the relevant subspecies of PA and DAG using the assay system of the invention. In general for the assay, the cells to be tested are first incubated with the primary stimulating agent for various time periods and fixed in ice-cold methanol. The lipids are extracted using, for example, chloroform:methanol 2:1 (v/v), and the extracts are then subjected to HPLC as described by Bursten and Harris, Biochemistry (1991) . In this method, a Rainin mu-Porasil column is used with a 3:4 hexane:propanol organic carrier and a 1-10% water gradient during the first 10 minutes of separation. Detection of the peaks in the elution pattern is by absorption in the range of ultraviolet which detects isolated double bonds. Thus, the relevant peaks of unsaturated PA and DAG are shown in the elution pattern. It is important to note that the assay method permits discrimination between various forms of PA and DAG so that those relevant to the pathway affected by the compounds of Formula I can be measured directly. Confirmation of the nature of the acyl substituents of these components is accomplished using fast-atom bombardment mass spectroscopy. Thus, the relevant unsaturated (non-arachidonic) PA and DAG subspecies may be detected. The time periods employed are 5-60 seconds after stimulation with the primary stimulus, such as a cytokine. This technique permits assessment of the levels of various lipid components as a function of time. […]
The extracts were subjected to HPLC on a Rainin mu-Porasil column with a 3:4 hexane:propanol organic carrier and a 1-10% water gradient during the first 10 minutes of separation. The relative concentration of each lipid species is determined using absorption at 206 nm (A206), which follows unsaturated acyl content of lipid species. […] The absolute mass of each lipid species is determined by isolation of the lipid using a fraction collector, repurification on the HPLC column. […] Protein concentration is determined using the Bradford technique. […]

[2] = system: lyso-PA acyl transferase (LPAAT); assay: Invention assay (lipid HPLC after IL-1), indirect enzyme inhibition; type: cell-based, Human; conditions: IL-1-stimulated HMC
Description: (§1) As shown hereinbelow, a simple assay involving incubation of target cells with primary stimulus in the presence or absence of the xanthine derivative followed by extraction and analysis of lipid content is diagnostic of the levels of various members of the foregoing pathway as characterized by their fatty acyl content. This assay indirectly measures the effect of the xanthine derivative on the relevant enzymes lysophosphatidic acid acyltransferase (LPAAT) and phosphatidic acid phosphoryl hydrolase (PAPH). In general, inhibition of these enzymes is effected by the xanthine derivative, thus resulting in lowering of the levels of the relevant species of the particular acylated subspecies of PA and DAG intermediates.
(§2) This example also illustrates the method of the invention.
(§3) Human glomerular mesangial cells were incubated with IL-1 for various time periods of 5-60 seconds and the cells were fixed in ice-cold methanol, and the lipids extracted using chloroform:methanol 2:1 (v/v). It is very important that the fixing/extraction process be conducted quickly so that the decomposition of unstable intermediates is halted.
(§4) The extracts were subjected to HPLC on a Rainin mu-Porasil column with a 3:4 hexane:propanol organic carrier and a 1-10% water gradient during the first 10 minutes of separation. The relative concentration of each lipid species is determined using absorption at 206 nm (A206), which follows unsaturated acyl content of lipid species. […] The absolute mass of each lipid species is determined by isolation of the lipid using a fraction collector, repurification on the HPLC column. Determination of phospholipid phosphorus is as nmoles/mg cellular protein. Protein concentration is determined using the Bradford technique.
(§5) Thus, the lyso PA that accumulates contains high levels of unsaturated fatty acids. Pentoxifylline in a dose range greater than 500 µM results in inhibition both of phosphatidate phosphohydrolase and of lyso PA acyl transferase.

[3] = system: phosphatidic acid phosphohydrolase (PAPH); assay: as above; type: cell-based, Human
Description: as §1, §2, §3, §4, §5

NIH3T3 cell line (D5C3) = assay: Blocking transformed phenotype of D5C3 cells (temperature-sensitive v-abl); type: cell-based, murine; design: key to Phenotype: 1+ represents a typical fibroblastic appearance of nontransformed NIH3T3 cells; visually graded on a scale of + (1+) to +++++ (5+); visually graded on a scale of + (1+) to +++++ (5+); +++++: 5+ represents a fully transformed phenotype; key to Growth: the nontransformed cells were scored as 1+ (for slower growth); graded from + (1+) to +++++ (5+); graded from + (1+) to +++++ (5+); +++++: the transformed cells were scored as 5+ (for rapid growth); conditions: for Growth / Phenotype: ciprofloxacin 50 µg/ml; for Phenotype: visually graded
Description: In an additional assay method of the invention, the effect of coadministering a xanthine compound with a candidate inhibitor for P450 can be assessed using transformed NIH3T3-[…] cells and comparing the effect on transformation phenotype among control, incubation with the xanthine derivative alone, and coincubation of the xanthine derivative with the P450 enzyme inhibitor. An NIH3T3 cell line ([…]) provides target cells which were transformed by an activated oncogene. The cells were transformed with a temperature-sensitive v-abl mutant gene. This mutant gene encodes a temperature-sensitive v-abl protein that produces a non-oncogenic product at a non-permissive temperature due to a lack of tyrosine phosphorylation. The cells were incubated at the permissive temperature (33°C) for 5 days after passage with and without pentoxifylline (1 mM).

[4] = system: NIH3T3 murine fibroblast cells transformed with a mutated K-ras; assay: Growth and anchorage-independent growth in soft agar of K-ras-transformed cells in vitro; type: cell-based; conditions: Mus musculus, NIH3T3, read-out: concentrations resulting in inhibition of growth and suppression of anchorage-independent growth
Description: Additionally, NIH3T3 murine fibroblast cells transformed with a mutated K-ras (codon 12 Gly-Val) were tested in vitro and in nude mice.

[5] = system: NIH3T3 murine fibroblast cells transformed with a mutated K-ras; assay: Subcutaneous tumors of K-ras-transformed NIH3T3 cells in nude mice; type: in vivo; conditions: after eight days, 10^6 cells subcutaneously
Description: Nude mice were injected subcutaneously with 10^6 cells and were treated either once or twice daily with 100 mg/kg pentoxifylline intraperitoneally. Control animals treated with only saline injections developed tumors that weighed 2.5 ±0.2 g after eight days. Animals treated once daily with pentoxifylline had tumors that weighed only 0.45 ±0.2 g while animals treated twice daily had tumors that weighed 0.2 ±0.1 g.

[6] = system: SV40 T-antigen-transformed human kidney mesangial cells; assay: Growth of transformed mesangial cells by tritiated thymidine uptake; type: cell-based
Description: SV40 T-antigen-transformed human kidney mesangial cells were cultured under standard conditions with rhIL-1 or with TNFα with and without pentoxifylline (PTX). Transformed mesangial cells grow independently of added growth factors, but IL-1 and TNFα are the normal proliferative signals for mesangial cells. As was shown in Example 1, when IL-1 is added to kidney mesangial cells, within 30 seconds LPAAT and PAPH are activated; the effect of both of these enzymes is inhibited by pentoxifylline at 1 mM. In this experiment, the growth of the treated cells was measured using tritiated thymidine uptake.

[7] = system: human leukemic cell line (Mo7e); assay: GM-CSF-stimulated colony formation in semisolid medium; type: cell-based; conditions: colonies counted 10 days after culture initiation; Figure 14
Description: The human leukemic cell line (Mo7e) is dependent on added granulocyte-macrophage colony-stimulating factor (GM-CSF) for growth. Mo7e cells were cultured in semisolid medium with and without pentoxifylline (PTX) and rhGM-CSF. Colonies were counted 10 days after culture initiation under an inverted microscope. […] PTX thus prevents the up-regulation of activation-associated genes which inhibit proliferation.

[8] = system: TNFα transcripts in U937 cells; assay: Northern blot of TNF transcripts after LPS induction; type: cell-based; conditions: 1 mM PTX; LPS for three hours
[9] = system: IL-6 transcripts in bone marrow stromal cells; assay: Northern blot of IL-6 transcripts; type: cell-based; conditions: three-hour exposure, increasing concentrations
[10] = system: Steel factor transcripts in marrow stromal cell lines; assay: Northern blot of Steel factor transcripts; type: cell-based; conditions: three-hour incubation; passaged (native) or cloned (CDCL) lines
CD3-positive lymphocytes = assay: Proliferation (thymidine uptake) of CD2-positive cells stimulated by anti-CD3 monoclonal antibody; type: cell-based
Description: In these experiments, freshly isolated, CD2-positive cells were stimulated by a solid-phase monoclonal antibody to acquire a CD3 phenotype, and then PTX was added. […] The block in proliferation could not be overcome by addition of either tumor necrosis factor (Figures 20 and 21) or IL-1 (Figure 21). […] The cytokines and PTX were added at culture inception and the cells were harvested after 5 days.

[11] = system: TNF transcripts in CD3 positive lymphocytes; assay: Northern blot, mixed lymphocyte reaction; type: cell-based; conditions: Figure 19A
[12] = system: IL-2 receptor transcripts in CD3 positive lymphocytes; assay: Northern blot, mixed lymphocyte reaction; type: cell-based; conditions: Figure 19C
[13] = system: IL-2 transcripts in CD3 positive lymphocytes; assay: Northern blot, mixed lymphocyte reaction; type: cell-based; conditions: Figure 19B
[14] = system: IL-8 encoding mRNA in U937 and THP1; assay: Northern blot of IL-8 mRNA after lipopolysaccharide or GM-CSF induction; type: cell-based
Description: The murine fibrosarcoma cell line, L929, was also tested as an indicator for assays of TNF cytotoxicity. Cell growth was assayed by crystal violet staining using optical density as a measure of growth. […] Finally, two monocytic cell lines, U937 and THP1, were used to test the effect of pentoxifylline on the […] of the cytokine IL-8. The cell lines in culture were induced to upregulate IL-8 production by lipopolysaccharide or GM-CSF.

[15] = system: HLA-DR, the transferrin receptor (CD71), the IL-2 receptor (CD25), and CD69; conditions: MLR-stimulated lymphocytes; Singer et al.; cited from earlier work
[16] = 33°C, 5 days, pentoxifylline 1 mM

With `Cn1c(=O)n(CCCCC(C)(C)O)c(=O)c2[nH]cnc21` [HWA138] as the molecule, how does the “suppression of T cell proliferation” value (T cell proliferation) read?
The value was “minimal or no suppression”.

Which “suppression of T cell proliferation” value (T cell proliferation) does the source give for `Cn1cnc2c1c(=O)n(CCCCC(=O)O)c(=O)n2C` [M4, 1-(4-carboxybutyl)-3,7-dimethylxanthine] here?
Its value is “minimal or no suppression”.

Which “suppression of T cell proliferation” value (T cell proliferation) does the source give for `CC(O)C(O)CCCn1c(=O)c2c(ncn2C)n(C)c1=O` (stereo not drawn) [M3, 1-(4,5-dihydroxyhexyl) -3,7-dimethylxanthine] here?
Its value is “minimal or no suppression”.

For `Cn1cnc2c1c(=O)n(CCCC(=O)O)c(=O)n2C` [M5, 1-(3-carboxypropyl)-3,7-dimethylxanthine], which “suppression of T cell proliferation” value (T cell proliferation) is on record?
The value was “minimal or no suppression”.

With `CC(O)CCCCn1c(=O)c2c(ncn2C)n(C)c1=O` (stereo not drawn) [M1, 1-(5-hydroxyhexyl) -3,7-dimethylxanthine] as the molecule, how does the “suppression of T cell proliferation” value (T cell proliferation) read?
Its value is “active”.

With `CC(=O)CCCCn1c(=O)c2c(ncn2C)n(C)c1=O` [Pentoxifylline] as the molecule, how does the “cyclical formation of PA, and conversion of PA to DAG” value ([1]; 100 µM pentoxifylline, 10^-11 M IL-1, 15- and 60-second points) read?
The value was “no change”.

What about the “conversion of PA to DAG” value ([1]; 500 µM pentoxifylline, 10^-11 M IL-1, 15 second time point) of the same molecule?
Its value is “slight attenuation”.

And the “elevation of PA and DAG by IL-1” value ([1]; 1 mM, all time points examined (15-60 seconds))?
Its value is “abolishes”.

And the “dose range resulting in inhibition of lyso PA acyl transferase” value [2]?
The value was “greater than 500 µM”.

What about the “inhibition of PAPH” value ([3]; 0.5 mM) of the same molecule?
Its value is “inhibits”.

What about the “dose range resulting in inhibition of phosphatidate phosphohydrolase” value ([3]; IL-1-stimulated HMC) of the same molecule?
The value was “greater than 500 µM”.

And the appearance of cells (NIH3T3 cell line (D5C3); 1 mM, 33°C, 5 days)?
The appearance of cells was “predominantly non-transformed, fibroblastic appearance”.

What about the Growth (NIH3T3 cell line (D5C3); [16]) of the same molecule?
Its Growth is “+++”.

What about the Phenotype (NIH3T3 cell line (D5C3); [16]) of the same molecule?
The Phenotype was “+++”.

What about the inhibition at 1000 µM (NIH3T3 cell line (D5C3); Mus musculus, NIH3T3, 120 h, 1 mM, 33°C, 5 days, read-out: overall number of cells diminished) of the same molecule?
Its inhibition at 1000 µM is roughly 50%.

What about the minimal effective concentration [4] of the same molecule?
Its minimal effective concentration is no less than 500 µM.

What about the tumor weight ([5]; 100 mg/kg intraperitoneally once daily) of the same molecule?
Its tumor weight is 0.45 ± 0.2 g.

And the tumor weight ([5]; 100 mg/kg intraperitoneally twice daily)?
Its tumor weight is 0.2 ± 0.1 g.

And the “proliferative effect of TNF” value ([6]; TNFα, Figure 13B)?
The value was “enhances”.

What about the “growth stimulated by IL-1” value ([6]; rhIL-1, Figure 13A) of the same molecule?
Its value is “arrested growth”.

And the “GM-CSF-stimulated growth of colonies” value [7]?
Its value is “enhanced”.

And the “TNF RNA obtained in response to LPS stimulation” value [8]?
The value was “undetectable level”.

And the “production of IL-6 transcripts” value [9]?
The value was “increased”.

What about the “levels of Steel factor transcripts” value [10] of the same molecule?
The value was “increases”.

And the “Proliferation of CD3-positive lymphocytes” value (CD3-positive lymphocytes; CD2-positive cells stimulated by solid-phase monoclonal antibody)?
The value was “strikingly inhibited”.

What about the thymidine uptake (CD3-positive lymphocytes; antibody 64.1, harvested after 5 days, not reversed by IL-1 or TNF) of the same molecule?
Its thymidine uptake is “diminished”.

And the TNF transcripts [11]?
Its TNF transcripts is “suppression”.

What about the IL-2 receptor transcripts [12] of the same molecule?
Its IL-2 receptor transcripts is “suppression”.

And the IL-2 transcripts [13]?
The IL-2 transcripts was “but not of IL-2 transcripts”.

And the “synthesis of IL-8” value [14]?
Its value is “did not inhibit”.

And the “proliferation of lymphocytes induced by anti-CD3” value (T cell proliferation)?
The value was “suppressed”.

What about the “expression of cell surface antigens on lymphocytes” value [15] of the same molecule?
Its value is “decreased”.

For `CCOCn1cnc2c1c(=O)n(CCCCC(C)(C)O)c(=O)n2C` [HWA448], which “suppression of T cell proliferation” value (T cell proliferation) is on record?
The value was “active”.

With `O=C(O)c1cn(C2CC2)c2cc(N3CCNCC3)c(F)cc2c1=O` [Ciprofloxacin] as the molecule, how does the Growth (NIH3T3 cell line (D5C3); [16]) read?
The Growth was “++”.

And the Phenotype (NIH3T3 cell line (D5C3); [16])?
The Phenotype was “++”.

What about the “inhibition of the transformed phenotype” value (NIH3T3 cell line (D5C3); pentoxifylline 1 mM, Ciprofloxacin 50 µg/ml) of the same molecule?
The value was “significant effect”.
